Data set [1] can be described thus: Drug uptake in human HepG2 cells assessed as relative fluorescence unit at 1 uM after 1 hr to 24 hrs by fluorescent plate reader based assay. The data set is classed as ADME, cell-based. The note with it: hepg2, 1 µM.
In data set [2] the target is T1, Neuronal acetylcholine receptor subunit alpha-7 (Homo sapiens, UniProt P36544). The data set can be described thus: Displacement of [125I]-alpha-bungarotoxin from human alpha7 nAChR expressed in human SH-SY5Y cell membranes after 30 mins by gamma counting analysis. Background: Loss of bound radioactivity is the signal in a displacement assay; it reports binding, not function.

Data set [3] concerns the target T1, Neuronal acetylcholine receptor subunit alpha-7. The data set can be described thus: Antagonist activity at human alpha7 nACHR expressed in xenopous laevis oocyte assessed as inhibition of ACh-induced channel current after 5 mins at -70 mV holding potential by two electrode voltage clamp method. For orientation: In two-electrode clamp one electrode senses voltage and the other passes current.

For data set [4], the system named is U-87 MG. Description: Induction of ROS production in human U87MG cells after 1 hr by MitoSOX Red mitochondrial superoxide indicator based FACS analysis. The format is functional, cell-based. The note with it: U-87MG ATCC.
Data set [5] deals with Astrocyte. The data set can be described thus: Cytotoxicity against mouse astrocytes assessed as reduction in cell viability after 72 hrs by MTS assay.
Data set [6] deals with U-87 MG. The data set can be described thus: Reduction in mitochondrial membrane potential in human U87MG cells after 72 hrs by TMRM-staining based assay. The note with it: U-87MG ATCC. The data set is classed as functional, cell-based.
Data set [7] relates to U-87 MG. Description: Cytotoxicity against human U87MG cells assessed as decrease in ATP production at 0.1 uM after 1 hr by luciferin-luciferase-based luminescent assay. The data set is classed as functional, cell-based. The note with it: U-87MG ATCC.
For data set [8], the system named is U-87 MG. The data set can be described thus: Reduction in mitochondrial membrane potential in human U87MG cells after 72 hr by TMRM-staining based assay. The note with it: U-87MG ATCC.
Data set [9] has as its system U-87 MG. The data set can be described thus: Cytotoxicity against human U87MG cells assessed as decrease in ATP production at 0.1 uM after 72 hrs by luciferin-luciferase-based luminescent assay. The format is functional, cell-based. The note with it: U-87MG ATCC.
For data set [10], the system named is SH-SY5Y. Description: Antiproliferative activity against human SH-SY5Y cells after 72 hrs by MTS assay. A general note: Tetrazolium assays rely on reduction of a dye to a coloured formazan, in cell work by metabolically active cells.
Data set [11] has as its system U-87 MG. The data set can be described thus: Induction of ROS production in human U87MG cells at 500 nM after 1 hr by MitoSOX Red mitochondrial superoxide indicator based FACS analysis relative to antimycin A. The data set is classed as functional, U-87MG ATCC.
Data set [12] has as its system A549. The data set can be described thus: cells. The note with it: Homo sapiens, A549, 72 h.
Description: Antiproliferative activity against human A549 cells after 72 hrs by MTS assay
The test system of data set [13] is U-87 MG. Description: cells. The note with it: Homo sapiens, 72 h.
Description: Antiproliferative activity against human U87MG cells after 72 hrs by MTS assay
In data set [14] the test system is U-87 MG. Description: Cytotoxicity against human U87MG cells assessed as decrease in ATP production at 1 uM after 1 hr by luciferin-luciferase-based luminescent assay. The data set is classed as functional, cell-based. The note with it: U-87MG ATCC.
The subject of data set [15] is U-87 MG. Description: Cytotoxicity against human U87MG cells assessed as decrease in ATP production at 1 uM after 72 hrs by luciferin-luciferase-based luminescent assay. The data set is classed as functional, cell-based. The note with it: U-87MG ATCC.
The target of data set [16] is Neuronal acetylcholine receptor; alpha9/alpha10 (Homo sapiens, UniProt Q9GZZ6+Q9UGM1). The data set can be described thus: Antagonist activity at human alpha9alpha10 nACHR expressed in xenopous laevis oocyte assessed as inhibition of ACh-induced channel current after 5 mins at -70 mV holding potential by two electrode voltage clamp method.
Data set [17] concerns U-87 MG. The data set can be described thus: Cytotoxicity against human U87MG cells assessed as decrease in ATP production at 2 uM after 1 hr by luciferin-luciferase-based luminescent assay. The data set is classed as functional, cell-based. The note with it: U-87MG ATCC.
The subject of data set [18] is U-87 MG. Description: Cytotoxicity against human U87MG cells assessed as decrease in ATP production at 2 uM after 72 hrs by luciferin-luciferase-based luminescent assay. The format is functional, cell-based. The note with it: U-87MG ATCC.
Data set [19] can be described thus: Drug metabolism in human HepG2 cells assessed as loss of styrene moiety at 100 uM incubated for 24 hrs by MS/MS analysis. The data set is classed as ADME, cell-based. The note with it: hepg2, 24 h.
The nature of data set [20]: Drug uptake in human HepG2 cells assessed as relative fluorescence unit at 100 uM after 6 hrs by fluorescent plate reader based assay. The format is ADME, cell-based. The note with it: hepg2, 6 h.
Data set [21] is described as follows: Drug uptake in human HepG2 cells assessed as relative fluorescence unit at 10 uM after 6 hrs by fluorescent plate reader based assay. The note with it: hepg2, 6 h. The data set is classed as ADME, cell-based.
Data set [22] deals with U-87 MG. The data set can be described thus: Cytotoxicity against human U87MG cells assessed as decrease in ATP production at 4 uM after 72 hrs by luciferin-luciferase-based luminescent assay. The data set is classed as functional, cell-based. The note with it: U-87MG ATCC.
Data set [23] in a line: Drug uptake in human HepG2 cells assessed as relative fluorescence unit at 50 uM after 24 hrs by fluorescent plate reader based assay. The format is ADME, cell-based. The note with it: hepg2, 24 h.
A short description of data set [24]: Drug uptake in human HepG2 cells assessed as relative fluorescence unit at 1 uM after 24 hrs by fluorescent plate reader based assay. The note with it: hepg2, 24 h. The data set is classed as ADME, cell-based.
The nature of data set [25]: Drug uptake in human HepG2 cells assessed as relative fluorescence unit at 10 uM after 24 hrs by fluorescent plate reader based assay. The data set is classed as ADME, cell-based. The note with it: hepg2, 24 h.
Data set [26] is described as follows: Drug uptake in human HepG2 cells assessed as relative fluorescence unit at 1 uM after 6 hrs by fluorescent plate reader based assay. The note with it: hepg2, 6 h. The format is ADME, cell-based.
A short description of data set [27]: Drug uptake in human HepG2 cells by fluorescent plate reader based assay. The data set is classed as ADME, cell-based.
The nature of data set [28]: Drug uptake in human HepG2 cells assessed as relative fluorescence unit at 100 uM after 24 hrs by fluorescent plate reader based assay. The note with it: hepg2, 24 h. The format is ADME, cell-based.
Data set [29] can be described thus: Drug uptake in human HepG2 cells assessed as relative fluorescence unit at 50 uM after 6 hrs by fluorescent plate reader based assay. The data set is classed as ADME, cell-based. The note with it: hepg2, 6 h.

Calls of active or inactive are those of the source. No cut-off for these calls is given here.

T1 sequence (P36544 whole entry): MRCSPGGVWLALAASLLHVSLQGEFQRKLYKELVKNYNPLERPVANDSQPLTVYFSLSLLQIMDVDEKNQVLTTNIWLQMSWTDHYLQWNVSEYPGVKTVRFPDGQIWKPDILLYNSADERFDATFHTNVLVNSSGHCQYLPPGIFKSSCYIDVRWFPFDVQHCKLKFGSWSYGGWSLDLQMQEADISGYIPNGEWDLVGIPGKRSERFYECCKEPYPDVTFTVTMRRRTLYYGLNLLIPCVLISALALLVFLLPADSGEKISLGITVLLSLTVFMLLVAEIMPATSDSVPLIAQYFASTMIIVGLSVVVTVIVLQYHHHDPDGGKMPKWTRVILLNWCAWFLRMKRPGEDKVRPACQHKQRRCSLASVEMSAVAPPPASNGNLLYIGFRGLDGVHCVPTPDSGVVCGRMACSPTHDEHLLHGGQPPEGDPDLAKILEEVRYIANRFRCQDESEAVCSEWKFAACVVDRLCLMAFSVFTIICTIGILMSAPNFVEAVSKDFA
Neuronal acetylcholine receptor; alpha9/alpha10, sequence (Q9UGM1 whole entry): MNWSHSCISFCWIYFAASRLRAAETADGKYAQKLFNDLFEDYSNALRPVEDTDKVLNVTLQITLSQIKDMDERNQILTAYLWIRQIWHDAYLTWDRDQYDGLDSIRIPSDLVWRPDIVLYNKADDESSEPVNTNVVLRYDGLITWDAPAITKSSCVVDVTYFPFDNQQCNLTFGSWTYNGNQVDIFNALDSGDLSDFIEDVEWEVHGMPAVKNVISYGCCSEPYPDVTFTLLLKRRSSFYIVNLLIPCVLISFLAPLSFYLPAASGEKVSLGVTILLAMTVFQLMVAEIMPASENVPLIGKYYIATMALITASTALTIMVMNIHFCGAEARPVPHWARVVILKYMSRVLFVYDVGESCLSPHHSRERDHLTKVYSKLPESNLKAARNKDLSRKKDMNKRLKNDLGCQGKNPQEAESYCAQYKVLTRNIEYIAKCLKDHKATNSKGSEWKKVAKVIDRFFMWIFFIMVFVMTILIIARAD
Neuronal acetylcholine receptor; alpha9/alpha10, sequence (Q9GZZ6 whole entry): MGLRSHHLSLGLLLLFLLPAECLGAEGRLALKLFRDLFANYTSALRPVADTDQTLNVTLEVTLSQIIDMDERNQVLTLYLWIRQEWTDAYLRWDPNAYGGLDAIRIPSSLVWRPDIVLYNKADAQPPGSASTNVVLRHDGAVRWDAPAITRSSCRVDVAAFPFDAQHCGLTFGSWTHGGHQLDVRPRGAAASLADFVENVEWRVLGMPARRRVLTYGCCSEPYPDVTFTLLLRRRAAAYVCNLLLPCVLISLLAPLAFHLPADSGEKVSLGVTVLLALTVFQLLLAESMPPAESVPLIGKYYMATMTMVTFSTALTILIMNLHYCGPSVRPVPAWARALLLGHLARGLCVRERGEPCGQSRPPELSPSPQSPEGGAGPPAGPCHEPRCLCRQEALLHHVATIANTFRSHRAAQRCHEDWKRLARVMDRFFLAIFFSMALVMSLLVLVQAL

As a reminder, the Ki is the dissociation constant of the complex between target and ligand, obtained from inhibition or displacement. A low value points to tighter binding. For orientation: IC50 means the point on the concentration scale where inhibition reaches its midpoint. In the case of `CC[N+](CC)(CC)CCCCCCCCOc1ccc(/C=C/c2ccccc2)cc1.[I-]`, the Drug uptake entry in data set [1] was “Active”. Moreover, the Ki in [2] is 164 nM. Also, in data set [3], the IC50 stood at 92 nM.

`C(=C\c1ccc(OCCCCCCCCCC[P+](c2ccccc2)(c2ccccc2)c2ccccc2)cc1)/c1ccccc1.[I-]`: the Activity entry in [4] was “Dose-dependent effect”; in data set [11], 58.2%. Further, the 50% inhibitory concentration (IC50) in data set [5] worked out at 600 nM; in data set [10], 210 nM; in data set [12] it was 100 nM; in [13], 60 nM. In addition, the result in [6], in [7], in data set [8] and in data set [9] was Active. The affinity in data set [2], expressed as Ki, was 1930 nM.

Take `CC[N+](CC)(CC)CCCCOc1ccc(/C=C/c2cc(OC)cc(OC)c2)cc1`: in [2], the affinity, expressed as Ki, was 305 nM. Further, the IC50 in [3] amounted to 24.3 nM.

In [2], `C(=C\c1ccc(OCCC[P+](c2ccccc2)(c2ccccc2)c2ccccc2)cc1)/c1ccccc1.[I-]` gave a Ki of 984 nM. In data set [11], this compound yielded an Activity of 21%. In addition, the IC50 in data set [12] was 1800 nM; in [13] it was 1400 nM.

`COc1cc(/C=C/c2ccc(OCCCC[P+](c3ccccc3)(c3ccccc3)c3ccccc3)cc2)cc(OC)c1.[I-]`: the Activity entry was “Dose-dependent effect” in data set [4] and 16.3% in data set [11]. For the same compound, the IC50 was 1000 nM in data set [5]; above 10000 nM in data set [3]; 550 nM in data set [10]; above 10000 nM in data set [16]; 260 nM in data set [12]; 860 nM in [13]. The outcome in data set [6], in data set [8], in data set [14] and in data set [15] was Active. In data set [2], this compound registered a Ki of 1830 nM.

Consider `C(=C\c1ccc(OCCCCC[P+](c2ccccc2)(c2ccccc2)c2ccccc2)cc1)/c1ccccc1.[I-]`, for which the Ki in data set [2] stood at 2800 nM. Further, the Activity in [11] is 20%. Also, the values for the IC50 in data set [12] and in [13] were 320 nM and 670 nM, respectively.

With `C(=C\c1ccc(OCCCC[P+](c2ccccc2)(c2ccccc2)c2ccccc2)cc1)/c1ccccc1.[I-]`, the Activity result in data set [4] was “Dose-dependent effect”; in data set [11], 1.5%. Moreover, the IC50 in [5] came out at 400 nM; in data set [10], 3000 nM; in data set [12], 420 nM; in data set [13], 640 nM. For the same compound, the outcome in [6], in data set [8], in data set [17] and in data set [18] was Active. The Ki in data set [2] is 1640 nM.

`CC[N+](CC)(CC)CCCCCCOc1ccc(/C=C/c2ccccc2)cc1` came in with an inhibition constant (Ki) in [2] of 465 nM. For the same compound, the IC50 in [3] worked out at 12.3 nM.

`C(=C\c1ccc(OCCCCCCCCC[P+](c2ccccc2)(c2ccccc2)c2ccccc2)cc1)/c1ccccc1.[I-]` had a Ki in data set [2] of 1290 nM. This compound also came in with an Activity in [11] of 56.3%. For the same compound, the IC50 in [12] was determined as 110 nM; in [13], 90 nM.

For `CC[N+](CC)(CC)CCCCOc1ccc(/C=C/c2ccccc2)cc1.[I-]`, the Drug uptake result in [1] was “Active”. The compound also came in with a Ki in data set [2] of 186 nM. Moreover, the IC50 in [3] stood at 6.5 nM.

Consider `CC[N+](CC)(CC)CCOc1ccc(/C=C/c2ccccc2)cc1.[I-]` [STILONIUM IODIDE], for which the Drug metabolism entry in data set [19] is listed as “Metabolite_Detected”. For the same compound, the Drug uptake in data set [20] amounted to 9.43 RFU; in [21], 6.82 RFU; in [23], 9.13 RFU; in data set [24] it was 5.42 RFU; in data set [25], 7.18 RFU; in data set [26], 4.75 RFU. Besides, the Drug uptake result in data set [27] is “Dose-dependent effect and Tde”; in data set [28] it was 14.35 RFU; in data set [29], 7.67 RFU. Besides, the result in data set [6], in [8] and in [22] was Active.

`C(=C\c1ccc(OCCCCCC[P+](c2ccccc2)(c2ccccc2)c2ccccc2)cc1)/c1ccccc1.[I-]` came in with a Ki in data set [2] of 559 nM. In addition, in data set [11], the Activity was 27.3%. Further, the IC50 in [12] was found to be 150 nM; in data set [13], 380 nM.

`C(=C\c1ccc(OCCCCCCC[P+](c2ccccc2)(c2ccccc2)c2ccccc2)cc1)/c1ccccc1.[I-]` showed a Ki in data set [2] of 617 nM. The compound further had an Activity in data set [11] of 39.5%. In addition, the IC50 was 120 nM in data set [12] and 360 nM in data set [13].

As to `C(=C\c1ccc(OCCCCCCCC[P+](c2ccccc2)(c2ccccc2)c2ccccc2)cc1)/c1ccccc1.[I-]`, in [1], the Drug uptake entry is recorded as “Active”. This compound also showed a Ki in [2] of 909 nM. In data set [11], this compound showed an Activity of 46.3%. Besides, the IC50 in data set [12] came out at 260 nM; in data set [13], 70 nM.

Regarding `CC[N+](CC)(CC)CCOc1ccc(/C=C/c2cc(OC)cc(OC)c2)cc1`, the outcome in data set [4] was inactive. Moreover, the half-maximal inhibitory concentration (IC50) in data set [5] is 23000 nM; in data set [10] it was above 100000 nM; in [16], 17.2 nM; in data set [12], 12000 nM; in data set [13] it was 5300 nM. Further, the result in [6], in data set [8] and in data set [22] was Active.

These data come from ChEMBL document CHEMBL4261640, “Potent Antiglioblastoma Agents by Hybridizing the Onium-Alkyloxy-Stilbene Based Structures of an α7-nAChR, α9-nAChR Antagonist and of a Pro-Oxidant Mitocan” (J Med Chem, 2018).
